Entries after “also recorded” stand apart in the source; their conditions may differ.
Experiments:
[1] = test system: NGF-dependent PC12 cell differentiation; assay: PC12 NGF-dependent neurite outgrowth; type: cell-based; details: 500 pM NGF; for IC50: read-out: IC50 PC12 neurite outgrowth, 72 h, 100 μmol/L to 31.6 nmol/L, n = 3
PC12 cells = assay: PC12 toxicity assay; type: cell-based; details: 100 μmol/L, 72 h, absence of NGF
Mouse NGF = Mouse NGF (Mus musculus, UniProt P01139); assay: SPR binding affinity of analogs to immobilized NGF; details: read-out: KD, binding affinity to immobilized NGF, two-site steady-state analysis, 0.70-200 μmol/L, 25 °C, mean of triplicate
immobilized TrkA = immobilized TrkA (Homo sapiens, UniProt P04629); assay: SPR binding to immobilized TrkA
Chain of immobilized TrkA (P04629 33-796): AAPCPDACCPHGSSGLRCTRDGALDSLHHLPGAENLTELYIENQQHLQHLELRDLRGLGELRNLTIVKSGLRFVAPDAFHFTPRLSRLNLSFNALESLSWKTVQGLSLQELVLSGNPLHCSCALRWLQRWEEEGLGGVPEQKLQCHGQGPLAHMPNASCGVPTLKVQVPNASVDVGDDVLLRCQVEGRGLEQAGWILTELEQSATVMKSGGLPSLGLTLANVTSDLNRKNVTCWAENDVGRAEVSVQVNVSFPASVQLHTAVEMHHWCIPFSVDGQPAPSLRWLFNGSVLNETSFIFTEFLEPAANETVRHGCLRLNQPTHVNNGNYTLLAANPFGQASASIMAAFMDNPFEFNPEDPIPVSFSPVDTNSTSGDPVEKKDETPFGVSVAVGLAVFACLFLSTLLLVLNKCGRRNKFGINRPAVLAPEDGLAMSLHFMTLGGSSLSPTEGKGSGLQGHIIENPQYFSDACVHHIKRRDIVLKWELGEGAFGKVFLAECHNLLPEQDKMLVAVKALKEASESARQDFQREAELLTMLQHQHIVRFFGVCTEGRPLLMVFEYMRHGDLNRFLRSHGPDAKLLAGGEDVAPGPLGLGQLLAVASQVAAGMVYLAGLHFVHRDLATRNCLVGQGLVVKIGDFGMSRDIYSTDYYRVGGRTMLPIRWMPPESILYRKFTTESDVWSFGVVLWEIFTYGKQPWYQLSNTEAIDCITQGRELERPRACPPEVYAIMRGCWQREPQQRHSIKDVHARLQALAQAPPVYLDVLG

Chain of Mouse NGF (P01139 122-241): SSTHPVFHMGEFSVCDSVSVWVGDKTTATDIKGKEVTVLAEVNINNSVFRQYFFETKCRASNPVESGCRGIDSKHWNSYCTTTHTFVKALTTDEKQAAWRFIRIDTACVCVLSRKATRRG

Compound | NGF-mediated PC12 cell process formation ([1]; increasing concentrations 0-100 μmol/L) | PC12 cell count and morphology versus control (PC12 cells) | Kd (Mouse NGF) | IC50 [1] | binding to immobilized TrkA (immobilized TrkA)
O=C(O)c1ccc(Cl)c(N2C(=O)c3ccc4c(=O)n5c6ccc([N+](=O)[O-])cc6nc5c5ccc(c3c45)C2=O)c1 [BVNP‐0197, 4‐Chloro‐3‐{6‐nitro‐11,16,18‐trioxo‐3,10,17‐triazahexacyclo[13.6.2.0^2,^10.0^4,^9.0^12,^22.0^19,^23]tricosa‐1(21),2,4,6,8,12,14,19,22‐nonaen‐17‐yl}benzoic acid] | significantly decreased | did not significantly differ from untreated cells |  |  | 
Cn1c2ccc(NC(=O)c3ccccc3)cc2c(=O)n2nc(C(=O)O)cc12 [PD 90780, 7‐(benzolylamino)‐4,9‐dihydro‐4‐methyl‐9‐oxo‐pyrazolo[5,1‐b]quinazoline‐2‐carboxylic acid] |  |  | 35.8 µM | 33.2 µM | none showed binding; also recorded: do not bind to TrkA
Cc1cc2nc3c(=O)[nH]c(=O)nc-3n(C)c2cc1C=O [Ro 08‐2750] |  |  | 32.4 µM | 12 µM | none showed binding; also recorded: do not bind to TrkA
